From PMC4823954, “From fighting depression to conquering tumors: a novel tricyclic thiazepine compound as a tubulin polymerization inhibitor” (Cell Death & Disease, 2016)

Tests used:
Assay in all cases: KINOMEscan
Format in all cases: binding
Settings in all cases: read-out: % Ctrl
[1] = target: T1, RIPK1 (Homo sapiens, UniProt Q13546)
T1 construct: purchased DiscoveRx KINOMEscan
Method in brief: (§1)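 Competition binding panel of 442 non-mutant kinases: test compound at 5 and 10 μM competed with an active-site-directed ligand for 1 h with shaking. Bound kinase was eluted with 0.5 μM ligand and quantified by qPCR; %Ctrl = (compound − positive control)/(DMSO − positive control) × 100, lower meaning tighter binding.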

[2] = target: T2, GRK7 (Homo sapiens, UniProt Q8WTQ7)
T2 construct: purchased DiscoveRx KINOMEscan
T2 sequence (Q8WTQ7 whole entry): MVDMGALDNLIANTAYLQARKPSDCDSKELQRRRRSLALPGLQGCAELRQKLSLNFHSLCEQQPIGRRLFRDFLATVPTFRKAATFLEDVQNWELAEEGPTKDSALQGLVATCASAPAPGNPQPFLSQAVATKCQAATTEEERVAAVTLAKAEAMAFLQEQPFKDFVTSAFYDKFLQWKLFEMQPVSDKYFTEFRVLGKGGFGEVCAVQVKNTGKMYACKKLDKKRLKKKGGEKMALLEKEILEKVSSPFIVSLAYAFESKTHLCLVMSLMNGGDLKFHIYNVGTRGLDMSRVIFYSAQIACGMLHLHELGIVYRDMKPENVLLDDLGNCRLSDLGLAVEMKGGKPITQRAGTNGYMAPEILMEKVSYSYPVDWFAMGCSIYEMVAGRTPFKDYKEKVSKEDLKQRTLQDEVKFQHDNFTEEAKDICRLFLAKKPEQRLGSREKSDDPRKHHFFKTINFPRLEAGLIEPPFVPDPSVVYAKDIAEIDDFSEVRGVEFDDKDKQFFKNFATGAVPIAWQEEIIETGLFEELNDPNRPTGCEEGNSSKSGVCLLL
Method in brief: as §1

[3] = target: T3, PAK2 (Homo sapiens, UniProt Q13177)
T3 construct: purchased DiscoveRx KINOMEscan
T3 sequence (Q13177 whole entry): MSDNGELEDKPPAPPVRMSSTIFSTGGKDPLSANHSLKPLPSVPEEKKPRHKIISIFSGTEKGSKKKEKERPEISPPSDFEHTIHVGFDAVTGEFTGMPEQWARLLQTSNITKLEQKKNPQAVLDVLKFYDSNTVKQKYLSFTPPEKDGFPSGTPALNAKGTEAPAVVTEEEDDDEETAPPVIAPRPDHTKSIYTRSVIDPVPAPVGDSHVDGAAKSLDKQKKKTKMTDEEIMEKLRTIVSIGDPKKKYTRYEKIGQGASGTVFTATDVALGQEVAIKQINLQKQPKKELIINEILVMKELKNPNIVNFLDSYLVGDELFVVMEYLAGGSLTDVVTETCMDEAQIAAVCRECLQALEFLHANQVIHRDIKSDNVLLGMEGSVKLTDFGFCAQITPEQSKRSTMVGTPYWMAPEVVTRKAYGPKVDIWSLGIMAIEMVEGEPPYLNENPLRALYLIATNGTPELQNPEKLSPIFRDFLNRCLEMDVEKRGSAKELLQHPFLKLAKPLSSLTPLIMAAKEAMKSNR
Method in brief: as §1

[4] = target: T4, PRKG2 (Homo sapiens, UniProt Q13237)
T4 construct: purchased DiscoveRx KINOMEscan
Method in brief: as §1

[5] = target: T5, PRKX (Homo sapiens, UniProt P51817)
T5 construct: purchased DiscoveRx KINOMEscan
T5 sequence (P51817 whole entry): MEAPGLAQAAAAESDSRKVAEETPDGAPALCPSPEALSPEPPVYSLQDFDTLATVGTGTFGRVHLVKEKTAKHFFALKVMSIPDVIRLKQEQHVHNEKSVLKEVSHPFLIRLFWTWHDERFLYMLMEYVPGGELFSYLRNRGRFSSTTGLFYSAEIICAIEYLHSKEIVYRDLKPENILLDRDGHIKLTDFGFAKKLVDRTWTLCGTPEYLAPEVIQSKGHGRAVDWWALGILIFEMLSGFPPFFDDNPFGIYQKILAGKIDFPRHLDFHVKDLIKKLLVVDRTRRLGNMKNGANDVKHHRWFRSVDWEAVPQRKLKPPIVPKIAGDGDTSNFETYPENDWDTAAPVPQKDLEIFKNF
Method in brief: as §1

[6] = target: T6, SRPK3 (Homo sapiens, UniProt Q9UPE1)
T6 construct: purchased DiscoveRx KINOMEscan
Method in brief: as §1

[7] = target: T7, CAMK2D (Homo sapiens, UniProt Q13557)
T7 construct: purchased DiscoveRx KINOMEscan
Method in brief: as §1

[8] = target: T8, PHKG2 (Homo sapiens, UniProt P15735)
T8 construct: purchased DiscoveRx KINOMEscan
Method in brief: as §1

[9] = target: T9, CLK1 (Homo sapiens, UniProt P49759)
T9 construct: purchased DiscoveRx KINOMEscan
T9 sequence (P49759 whole entry): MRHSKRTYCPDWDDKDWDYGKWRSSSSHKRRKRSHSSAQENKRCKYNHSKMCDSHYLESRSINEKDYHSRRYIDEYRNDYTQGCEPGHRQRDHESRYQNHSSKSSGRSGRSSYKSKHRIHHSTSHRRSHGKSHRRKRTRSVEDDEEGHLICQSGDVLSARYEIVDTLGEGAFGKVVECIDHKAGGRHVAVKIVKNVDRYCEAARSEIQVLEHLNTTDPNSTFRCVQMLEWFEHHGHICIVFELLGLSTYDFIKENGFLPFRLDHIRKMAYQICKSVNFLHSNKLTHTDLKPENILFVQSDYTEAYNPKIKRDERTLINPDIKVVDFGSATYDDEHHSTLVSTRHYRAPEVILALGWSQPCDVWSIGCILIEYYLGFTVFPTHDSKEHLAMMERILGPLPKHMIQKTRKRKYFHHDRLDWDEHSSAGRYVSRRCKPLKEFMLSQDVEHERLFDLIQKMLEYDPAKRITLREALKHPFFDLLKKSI
Method in brief: as §1

[10] = target: T10, ULK2 (Homo sapiens, UniProt Q8IYT8)
T10 construct: purchased DiscoveRx KINOMEscan
Method in brief: as §1

[11] = target: T11, EPHA7 (Homo sapiens, UniProt Q15375)
T11 construct: purchased DiscoveRx KINOMEscan
Method in brief: as §1

[12] = target: T12, DCAMKL2 (Homo sapiens, UniProt Q8N568)
T12 construct: purchased DiscoveRx KINOMEscan
T12 sequence (Q8N568 whole entry): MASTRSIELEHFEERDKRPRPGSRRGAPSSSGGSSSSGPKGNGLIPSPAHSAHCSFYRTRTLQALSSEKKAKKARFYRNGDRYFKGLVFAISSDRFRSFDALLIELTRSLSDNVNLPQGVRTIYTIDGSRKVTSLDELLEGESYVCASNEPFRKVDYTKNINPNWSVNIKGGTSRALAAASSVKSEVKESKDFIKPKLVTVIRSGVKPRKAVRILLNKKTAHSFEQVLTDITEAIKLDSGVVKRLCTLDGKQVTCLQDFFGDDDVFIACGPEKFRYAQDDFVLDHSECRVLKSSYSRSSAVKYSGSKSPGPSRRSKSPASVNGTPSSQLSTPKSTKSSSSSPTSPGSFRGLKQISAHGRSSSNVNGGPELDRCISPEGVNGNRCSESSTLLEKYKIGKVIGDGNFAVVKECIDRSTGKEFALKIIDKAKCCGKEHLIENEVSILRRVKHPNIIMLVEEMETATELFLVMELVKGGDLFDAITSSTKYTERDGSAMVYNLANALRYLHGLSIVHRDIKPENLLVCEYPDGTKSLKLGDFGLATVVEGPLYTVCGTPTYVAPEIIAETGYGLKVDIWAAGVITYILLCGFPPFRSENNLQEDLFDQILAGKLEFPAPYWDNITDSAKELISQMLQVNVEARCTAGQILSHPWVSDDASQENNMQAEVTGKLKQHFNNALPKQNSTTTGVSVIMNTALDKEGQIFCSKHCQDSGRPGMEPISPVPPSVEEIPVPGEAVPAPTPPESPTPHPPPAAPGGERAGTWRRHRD
Method in brief: as §1

[13] = target: T13, TYK2(JH2domain-pseudokinase) (Homo sapiens, UniProt P29597)
T13 construct: TYK2(JH2domain-pseudokinase); purchased DiscoveRx KINOMEscan
Method in brief: as §1

[14] = target: T14, BRSK2 (Homo sapiens, UniProt Q8IWQ3)
T14 construct: purchased DiscoveRx KINOMEscan
Method in brief: as §1

[15] = target: T15, FYN (Homo sapiens, UniProt P06241)
T15 construct: purchased DiscoveRx KINOMEscan
Method in brief: as §1

[16] = target: T16, PIK3C2G (Homo sapiens, UniProt O75747)
T16 construct: purchased DiscoveRx KINOMEscan
Method in brief: as §1

[17] = target: T17, CHEK1 (Homo sapiens, UniProt O14757)
T17 construct: purchased DiscoveRx KINOMEscan
T17 sequence (O14757 whole entry): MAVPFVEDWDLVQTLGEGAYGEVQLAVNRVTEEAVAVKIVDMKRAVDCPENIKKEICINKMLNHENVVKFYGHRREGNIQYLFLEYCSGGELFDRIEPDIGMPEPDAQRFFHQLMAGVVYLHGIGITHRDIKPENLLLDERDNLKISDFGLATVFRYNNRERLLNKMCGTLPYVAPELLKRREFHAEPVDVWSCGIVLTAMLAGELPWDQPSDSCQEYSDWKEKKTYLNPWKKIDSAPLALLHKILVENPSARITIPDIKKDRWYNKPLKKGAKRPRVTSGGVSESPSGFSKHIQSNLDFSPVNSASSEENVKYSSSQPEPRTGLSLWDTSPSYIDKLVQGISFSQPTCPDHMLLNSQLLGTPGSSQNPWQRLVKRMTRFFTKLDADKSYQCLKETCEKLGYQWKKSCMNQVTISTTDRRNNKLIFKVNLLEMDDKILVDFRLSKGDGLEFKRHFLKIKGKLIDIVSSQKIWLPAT
Method in brief: as §1

[18] = target: T18, MERTK (Homo sapiens, UniProt Q12866)
T18 construct: purchased DiscoveRx KINOMEscan
Method in brief: as §1

[19] = target: T19, EGFR(S752-I759del) (Homo sapiens, UniProt P00533, DEL752-759)
T19 construct: purchased DiscoveRx KINOMEscan

[20] = target: T20, HUNK (Homo sapiens, UniProt P57058)
T20 construct: purchased DiscoveRx KINOMEscan
Method in brief: as §1

[21] = target: T21, MARK3 (Homo sapiens, UniProt P27448)
T21 construct: purchased DiscoveRx KINOMEscan
Method in brief: as §1

[22] = target: T22, NIM1 (Homo sapiens, UniProt Q8IY84)
T22 construct: purchased DiscoveRx KINOMEscan
T22 sequence (Q8IY84 whole entry): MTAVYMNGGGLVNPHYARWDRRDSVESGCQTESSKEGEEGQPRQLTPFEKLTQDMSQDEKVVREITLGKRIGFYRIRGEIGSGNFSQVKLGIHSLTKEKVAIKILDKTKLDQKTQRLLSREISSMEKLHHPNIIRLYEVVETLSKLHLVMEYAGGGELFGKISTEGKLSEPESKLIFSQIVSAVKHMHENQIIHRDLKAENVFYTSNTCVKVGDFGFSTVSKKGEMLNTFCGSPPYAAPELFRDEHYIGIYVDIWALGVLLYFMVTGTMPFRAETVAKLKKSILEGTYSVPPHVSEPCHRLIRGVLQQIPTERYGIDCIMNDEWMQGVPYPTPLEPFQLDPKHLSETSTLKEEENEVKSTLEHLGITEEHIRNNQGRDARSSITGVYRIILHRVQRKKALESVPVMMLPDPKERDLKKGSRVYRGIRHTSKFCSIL
Method in brief: as §1

[23] = target: T23, FRK (Homo sapiens, UniProt P42685)
T23 construct: purchased DiscoveRx KINOMEscan
T23 sequence (P42685 whole entry): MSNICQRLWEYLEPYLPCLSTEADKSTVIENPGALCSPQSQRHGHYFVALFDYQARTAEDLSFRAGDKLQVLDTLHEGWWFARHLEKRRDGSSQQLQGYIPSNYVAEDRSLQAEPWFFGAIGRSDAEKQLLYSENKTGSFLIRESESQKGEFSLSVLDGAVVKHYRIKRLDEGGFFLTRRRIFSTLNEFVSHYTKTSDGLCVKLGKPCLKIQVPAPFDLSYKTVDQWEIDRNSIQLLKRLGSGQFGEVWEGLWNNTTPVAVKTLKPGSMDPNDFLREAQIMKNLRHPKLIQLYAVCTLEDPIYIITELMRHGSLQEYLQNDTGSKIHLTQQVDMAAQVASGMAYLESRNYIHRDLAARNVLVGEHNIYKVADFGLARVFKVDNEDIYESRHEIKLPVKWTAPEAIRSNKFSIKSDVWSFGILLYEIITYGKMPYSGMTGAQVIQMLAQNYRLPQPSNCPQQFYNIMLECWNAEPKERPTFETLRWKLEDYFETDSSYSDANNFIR
Method in brief: as §1

[24] = target: T24, BMPR1A (Homo sapiens, UniProt P36894)
T24 construct: purchased DiscoveRx KINOMEscan
Method in brief: as §1

[25] = target: T25, CDKL1 (Homo sapiens, UniProt Q00532)
T25 construct: purchased DiscoveRx KINOMEscan
Method in brief: as §1

[26] = target: T26, LYN (Homo sapiens, UniProt P07948)
T26 construct: purchased DiscoveRx KINOMEscan
Method in brief: as §1

[27] = target: T27, TGFBR1 (Homo sapiens, UniProt P36897)
T27 construct: purchased DiscoveRx KINOMEscan
Method in brief: as §1

[28] = target: T28, CAMKK2 (Homo sapiens, UniProt Q96RR4)
T28 construct: purchased DiscoveRx KINOMEscan
Method in brief: as §1

[29] = target: T29, WEE1 (Homo sapiens, UniProt P30291)
T29 construct: purchased DiscoveRx KINOMEscan
Method in brief: as §1

[30] = target: T30, MLK1 (Homo sapiens, UniProt P80192)
T30 construct: purchased DiscoveRx KINOMEscan
Method in brief: as §1

T1 sequence (Q13546 whole entry): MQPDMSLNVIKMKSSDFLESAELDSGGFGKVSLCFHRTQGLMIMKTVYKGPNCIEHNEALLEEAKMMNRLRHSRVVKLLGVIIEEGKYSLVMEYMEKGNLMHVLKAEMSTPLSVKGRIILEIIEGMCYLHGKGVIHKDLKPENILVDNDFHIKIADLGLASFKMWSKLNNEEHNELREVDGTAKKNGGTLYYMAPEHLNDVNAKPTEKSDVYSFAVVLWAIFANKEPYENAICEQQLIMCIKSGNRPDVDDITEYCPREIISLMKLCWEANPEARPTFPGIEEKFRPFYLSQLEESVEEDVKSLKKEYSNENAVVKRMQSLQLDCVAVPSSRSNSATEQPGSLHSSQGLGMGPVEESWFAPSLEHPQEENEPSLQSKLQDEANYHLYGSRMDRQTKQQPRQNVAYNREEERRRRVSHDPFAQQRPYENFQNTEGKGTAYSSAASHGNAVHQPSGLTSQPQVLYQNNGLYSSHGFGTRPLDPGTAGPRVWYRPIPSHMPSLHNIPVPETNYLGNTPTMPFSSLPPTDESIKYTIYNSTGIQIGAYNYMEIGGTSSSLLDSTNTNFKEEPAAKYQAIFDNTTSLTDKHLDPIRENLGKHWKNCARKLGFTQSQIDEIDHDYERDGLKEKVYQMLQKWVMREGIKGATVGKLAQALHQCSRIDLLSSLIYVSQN

With Cc1ccc(C2=Nc3cccnc3S(=O)(=O)c3ccccc32)cc1 [TBPT, 6-(p-tolyl)benzo[f] pyrido[2,3-b][1,4] thiazepine 11,11-dioxide] the remaining binding at 5 µM ([1]; 5 μM) was 100%, the remaining binding at 10 µM ([1]; 10 μM) was 100% and the remaining binding at 5 µM ([2]; 5 μM) was 100%. The remaining binding at 10 µM ([2]; 10 μM) was 100%, the remaining binding at 5 µM ([3]; 5 μM) was 100% and the remaining binding at 10 µM ([3]; 10 μM) was 100%. It also gave a remaining binding at 5 µM ([4]; 5 μM) of 88%, a remaining binding at 10 µM ([4]; 10 μM) of 98% and a remaining binding at 5 µM ([5]; 5 μM) of 92%. For the same compound, the remaining binding at 10 µM ([5]; 10 μM) was 70%, the remaining binding at 5 µM ([6]; 5 μM) was 100% and the remaining binding at 10 µM ([6]; 10 μM) was 89%. The remaining binding at 5 µM ([7]; 5 μM) was 94%, the remaining binding at 10 µM ([7]; 10 μM) was 100% and the remaining binding at 5 µM ([8]; 5 μM) was 100%. For the same compound, the remaining binding at 10 µM ([8]; 10 μM) was 100%, the remaining binding at 5 µM ([9]; 5 μM) was 95% and the remaining binding at 10 µM ([9]; 10 μM) was 100%. It also gave a remaining binding at 5 µM ([10]; 5 μM) of 91%, a remaining binding at 10 µM ([10]; 10 μM) of 92% and a remaining binding at 5 µM ([11]; 5 μM) of 93%. For the same compound, the remaining binding at 10 µM ([11]; 10 μM) was 100%, the remaining binding at 5 µM ([12]; 5 μM) was 100% and the remaining binding at 10 µM ([12]; 10 μM) was 100%. It also gave a remaining binding at 5 µM ([13]; 5 μM) of 82%, a remaining binding at 10 µM ([13]; 10 μM) of 100% and a remaining binding at 5 µM ([14]; 5 μM) of 100%. It also gave a remaining binding at 10 µM ([14]; 10 μM) of 100%, a remaining binding at 5 µM ([15]; 5 μM) of 85% and a remaining binding at 10 µM ([15]; 10 μM) of 95%. It also gave a remaining binding at 5 µM ([16]; 5 μM) of 100%, a remaining binding at 10 µM ([16]; 10 μM) of 100% and a remaining binding at 5 µM ([17]; 5 μM) of 100%. The remaining binding at 10 µM ([17]; 10 μM) was 100%, the remaining binding at 5 µM ([18]; 5 μM) was 100% and the remaining binding at 10 µM ([18]; 10 μM) was 80%. For the same compound, the remaining binding at 5 µM ([19]; 5 μM) was 79%, the remaining binding at 10 µM ([19]; 10 μM) was 100% and the remaining binding at 5 µM ([20]; 5 μM) was 89%. The remaining binding at 10 µM ([20]; 10 μM) was 84%, the remaining binding at 5 µM ([21]; 5 μM) was 96% and the remaining binding at 10 µM ([21]; 10 μM) was 87%. The remaining binding at 5 µM ([22]; 5 μM) was 90%, the remaining binding at 10 µM ([22]; 10 μM) was 78% and the remaining binding at 5 µM ([23]; 5 μM) was 100%. It also gave a remaining binding at 10 µM ([23]; 10 μM) of 99%, a remaining binding at 5 µM ([24]; 5 μM) of 97% and a remaining binding at 10 µM ([24]; 10 μM) of 80%. It also gave a remaining binding at 5 µM ([25]; 5 μM) of 94%, a remaining binding at 10 µM ([25]; 10 μM) of 88% and a remaining binding at 5 µM ([26]; 5 μM) of 87%. For the same compound, the remaining binding at 10 µM ([26]; 10 μM) was 100%, the remaining binding at 5 µM ([27]; 5 μM) was 100% and the remaining binding at 10 µM ([27]; 10 μM) was 85%. The remaining binding at 5 µM ([28]; 5 μM) was 97%, the remaining binding at 10 µM ([28]; 10 μM) was 83% and the remaining binding at 5 µM ([29]; 5 μM) was 100%. It also gave a remaining binding at 10 µM ([29]; 10 μM) of 96%, a remaining binding at 5 µM ([30]; 5 μM) of 100% and a remaining binding at 10 µM ([30]; 10 μM) of 100%.
